Measured values from patent US12285459B2, “Saposin-A derived peptides and uses thereof” (CHILDREN'S MEDICAL CENTER CORPORATION, priority 2011, dated 2025).

How the values were obtained:
[1] = tested on: Tsp-1 and p53 expression in prostate fibroblasts; experiment: Tsp-1 and p53 expression in prostate fibroblasts treated with peptides, western blot; assay type: cell-based; conditions: FIG. 2; compared with the longer peptide of the 35-40 region
Protocol: Methods of assaying the effects of a polypeptide described herein on Tsp-1 and p53 expression are described herein. Briefly, a control Psap alongside a test polypeptide, is applied to a cell culture of prostate fibroblasts. The conditioned media from PC3M-LN4 (LN4) and PC3 cells are used as controls, with PC3 as positive/stimulating control and LN4 as negative/inhibiting controls. After a period of incubation (˜16 h), the cells are harvested, rinsed, and lysed. The lysates are analyzed for the level of Tsp-1 and p53 expression by western blot analyses, with β-actin as the internal lysate protein loading control.
These peptides were used to treat prostate and lung fibroblasts in vitro at a concentration of 10 ug/mL for 16 hours in ATCC-specified media supplemented with 0.1% FBS. Tsp-1 and p53 expression was analyzed by western blot as described previously (Kang, Y., et al., (2003) Cancer Cell 3:537-549.)

[2] = tested on: MDA-MB-231-LM2 breast cancer cells; experiment: Orthotopic MDA-MB-231-LM2 breast cancer model, lung metastasis after primary tumor resection; assay type: in vivo, SCID mice
Protocol: For orthotopic breast cancer cell injections, 5×10^6 viable MDA-MB-231 or its metastatic variant MDA-MB-LM2 cells, were injected into CB-17 SCID mice fat pads in a volume of 0.1 ml. Tumor growth and pulmonary metastases (following resection of primary tumor) were monitored by live animal bioluminescence imaging (Xenogen) once per week. For orthotopic prostate cancer cell injections, 2×10^6 viable LN4 or LN4-psap cells were injected into the prostate gland of mice. For in vivo determination of the metastatic burden, mice were anaesthetized and injected intraperitoneally with 75 mg/kg of D-luciferin (100 uL of 30 mg/mL in PBS). Metastatic growth was monitored over time using bioluminescence imaging performed with mice in a supine position 5 min after D-luciferin injection with a Xenogen IVIS system coupled to Living Image acquisition and analysis software (Xenogen). For BLI plots, photon flux was calculated for each mouse by using the same circular region of interest encompassing the thorax of the mouse.
The ability of the DWLPK (SEQ ID NO: 4) peptide to inhibit metastasis was tested in an orthotopic, clinically relevant, model of breast cancer metastatic to the lung. […] Lung metastases were assessed 3 weeks after the primary tumor removal (week 6 after primary tumor injection).

[3] = tested on: Tsp-1 and p53 expression in lungs; experiment: Tumor-free mice given PC3M-LN4 conditioned media plus peptide; Tsp-1/p53 in tissue by western blot; assay type: in vivo, C57Bl6 mice; conditions: PC3M-LN4 CM in combination with peptide; Western blot, FIG. 3
Protocol: For tumor-free analysis C57Bl6 mice were treated with 200 uL of PC3M-LN4 media alone or in combination with peptides described above at dose of 30 mg/kg/day for 5 days. After treatment the animals were sacrificed and the lungs were harvested, lysed and analyzed for Tsp-1 and p53 protein levels as described previously (Kang et al).
It was sought to determine whether there was a smaller domain within saposin A that contained the p53/Tsp-1 stimulating activity. […] C57Bl6 mice (5-6 wks old) were injected daily with 300 uL of serum free DMEM, conditioned media (CM) from non-metastatic PC3 cells, CM from metastatic PC3M-LN4 cells and PC3M-LN4 CM plus 30 mg/kg of the pegylated 6 amino acid polypeptide (PEG2000-CDWLPK (SEQ ID NO: 46)) or 30 mg/kg of the pegylated 18 amino acid polypeptide (PEG2000-[…] (SEQ ID NO: 47)). After 9 days the mice were euthanized and the lungs and livers harvested and either fixed in formalin or lysed for Western blot analysis.
Finally, the effect of substituting D-amino acids at different residues of the 4-amino acid peptide was analyzed. By Western blot analysis it was observed that substituting the first and third or second and fourth residues, in combination, had no effect on the Tsp-1 stimulating activity in vitro. These peptides were then tested in the tumor-free animal model described above. The normal 4-amino acid peptide and the D-amino acid substituted peptides were injected in combination with conditioned media from PC3M-LN4 cells in adult C57Bl6 mice for 4 days at a dose of 10 or 30 mg/kg/day via i.p. injection. Mice were sacrificed 24 hours after the treatment on day 4. The lungs of these mice were harvested and analyzed the Tsp-1 expression by Western blot analysis. […]
Methods: 18 C57Bl6 mice were injected with Ac-dWlP-amide (SEQ ID NO: 132) at a dose of 30 mg/kg in a volume of 100 μL via intraperitoneal (i.p) injections in serum starved conditioned media from PC3M-LN4 prostate cancer cells. […] The relative intensity of the Tsp-1 (normalized to β-Actin) bands were determined using a Bio-Rad Chemi-Doc XRS system.

DWLPK [5-amino acid peptide corresponding to residues 36-40 of saposin A]
ability to stimulate Tsp-1 in prostate fibroblasts after removing a terminal residue [1]: increased the ability of the resulting 5-amino acid peptide to stimulate Tsp-1
Tsp-1 in the Gr1+ myeloid compartment of lungs ([2]; compared to scrambled peptide): persistent Tsp-1 upregulation
reduction of the metastatic burden in the lungs ([2]; daily treatment after resection, 3 weeks after primary tumor removal, versus scramble peptide): 50%
Tsp-1 and p53 expression in the lungs above basal levels [3]: 6 fold
